Experimental data taken from US20250381165A1, “Method of Use for Benzofuran Compounds” (Tampa Bay Research Institute, Inc., priority 2024, published 2025).

How the values were obtained:
IMG = experiment: CellTiter-Glo cell viability, IMG; assay type: cell-based, murine; settings: Mus musculus
Procedure: BzFβ was then examined for its effect on the viability of several murine and human cell lines and primary murine splenocytes. The cytotoxicity of BzFβ was assessed using the CellTiter-Glo […] assay system according to manufacturer's instructions to determine BzFβ's effect on the viability of several murine and human cell lines and primary murine splenocytes.
DC2.4 cell line (Dr. Kenneth Rock, University of Massachusetts), RAW 264.7 cell line (American Type Culture Collection (ATCC), Manassas, VA; TIB 71), and IMG cell line (Millipore™, Merck KGaA, Burlington, MA; cat. no. SC-C134) were each cultured in complete Dulbecco's Modified Eagle Medium (cDMEM) containing […] glucose (Gibco™, Thermo Fisher Scientific Inc., Waltham, MA; cat. no. 10566-016) and supplemented with GlutaMAX, 50 U/mL penicillin and 50 µg/mL streptomycin (Gibco™; cat. no. 15070-063) and 10% heat inactivated fetal bovine serum (FBS) (R&D Systems, Inc., Minneapolis, MN; cat. no. […]
The cytotoxicity of BzFβ was assessed using the CellTiter-Glo cell […] viability assay system […] cat. no. […] CellTiter-Glo was added 1:1 in the media and the level of chemiluminescence was measured using luminescence at wavelengths of 200 nm to 700 nm through a photomultiplier on BioTek's Synergy HTX multimode microplate reader. […]

[1] = Detection of BzFβ in serum by HPLC; assay type: in vivo, C57BL/6NCrl mice
Procedure: Six- to ten-week-old male and female C57BL/6NCrl mice (Charles River Laboratories, Wilmington MA; cat. no. 027) were used for all animal studies. The mice were maintained in accord with the NIH Guide for the Care and Use of Laboratory Animals. Experimental procedures were performed in accord with research protocols approved by the Tampa Bay Research Institute's Institutional Animal Care and Use Committee. Mice were maintained in an INOVIVE individually ventilated cage system with 3 mice per cage containing 100% virgin wood pulp bedding (Harlan Teklad™, Harlan Sprague Dawley Inc., Indianapolis, IA; cat. no. 7099). Water and food (Harlan Teklad™, cat. no. 8640) were available ad libitum. The mice were maintained on a cycle of 12 h of light and 12 h of dark in an environment with a temperature of 74-76° […]. and 40-60% humidity. All cages underwent 40 air changes hourly in the negative pressure mode, in accordance with manufacturer's recommendations. Both the intake and exhaust air from the system were filtered through HEPA filters to maintain a clean environment. Stock solutions of BzFβ were solubilized in alkaline water (pH 10) and then sterile filtered through 0.22 µm syringe filters. BzFβ used for iv or im injections was diluted in 0.9% saline (normal saline). The stock solutions of the SIINFEKL peptide were prepared in 1× calcium/magnesium free Dulbecco's phosphate-buffered saline (DPBS; ThermoFisher Scientific, cat. no. 14190144).
After overnight fasting, six-to ten-week-old mice were gavaged with 1-2 mg of BzFβ solubilized in 200 μL alkaline water or were injected intramuscular (IM) or intravenous with 100 μg diluted in normal saline. After various times mice were anesthetized using 2.0% isoflurane with O2 at 1 L/min, and 200-500 μL of blood was collected in a microfuge tube containing 700 μL of 50 mM EDTA in DPBS as an anticoagulant. The blood samples were centrifuged at 4500×g for 20 min to separate the plasma from the cells. The resulting plasma (200 μL) was removed and extracted with 4 mL methanol. This mixture was vortexed for 30 s and centrifuged at 4000×g for 10 min at 4° C. The supernatant was collected and dried using a SpeedVac (SC210 Å) under a vacuum of 0.4 torr at 65° C. When dry, the sample was removed and resuspended in 100 μL methanol and then re-centrifuged to remove any precipitates. A 20 μL sample of this mixture was analyzed by HPLC.
BzFβ was detected in the serum using a Shimadzu high performance liquid chromatography (HPLC) system. The Shimadzu system consisted of two LC-20AR pumps, a SPD-M20A diode array UV-Vis detector, and a 20 μL injection loop onto a Phenomenex Luna […] Analytical PFP column 100 A (cat. no. OOF-4448-E0). Analysis and data collection were conducted using Shimadzu LabSolutions software. Samples ([…]) were injected onto the column and separated using a gradient of acetonitrile (ACN) and water as the mobile phase. The gradient started with 10% ACN and increased stepwise to 80% ACN for peak clarity. Buffer B was water adjusted to pH 2.5 using phosphoric acid. The column was kept at a constant temperature of 30° C. (Chai, et al., Comprehensive study of the intestinal absorption of four phenolic compounds after oral administration of Ananas comosus leaf extract in vivo and in vitro. Afr J Pharm Pharmacol. 2013 Jul. 15; 7(26):1781-92).
Following up on the prediction that BzFβ should be able to be absorbed through the GI tract and gain access to the systemic circulation, C57Bl/6crl mice were gavaged (po) with either 200 μL of alkaline water (negative control) or with 2 mg of BzFβ solubilized in 200 μL alkaline water. Fifteen minutes later, peripheral blood was obtained. The serum was extracted with methanol, lyophilized, and then examined by HPLC for the presence of BzFβ. […] BzFβ was then administered to another group of mice iv (100 μg), im ([…]), and po (1 mg). After 15 min, the serum was collected, extracted with methanol, and then analyzed by HPLC. […]

For `O=C(O)/C=C/c1ccc2occc2c1` [BzFβ, (2E)-3-(1-benzofuran-5-yl)prop-2-enoic acid], the IC50 (IMG) was 316 µM, the persistence in serum ([1]; 1, 2 and 3 h post im injection of 1 mg) was “still detectable” and the “stability in vivo compared with dipeptides” value ([1]; GI tract and bloodstream) was “much more stable in the GI tract and bloodstream”. For the same compound, the “presence in serum by HPLC” value ([1]; iv (100 μg), im (100 g), po (1 mg), 15 min) was “presence of the appropriate peak”, the “earliest detection in blood plasma” value ([1]; oral administration) was 30 min and the “latest detection in blood plasma” value ([1]; oral administration) was 3 h. For the same compound, the “presence in serum by HPLC” value ([1]; po 2 mg, fifteen minutes) was “revealed the presence of BzFβ”.
